Measurements taken from patent US11161817B2, “Quinoline derivative and use thereof as tyrosine kinase inhibitor” (CHONGQING PHARMACEUTICAL INDUSTRIAL RESEARCH INSTITUTE CO. …, priority 2017, dated 2021).
Like-named read-outs stand apart in the source and are kept apart here. Each block holds one compound with its values, some of them ahead of it.

Assays:
FGFR1(h) = FGFR1(h) (Homo sapiens, UniProt P11362); assay: In vitro kinase activity test, FGFR1(h)
Experimental: (§1) Protein kinase with a corresponding enzyme concentration of X (shown in table 1), peptide substrate with a concentration of Y, ATP with a specific concentration, 8 mM MOPS (pH 7.0), and 10 mM MgCl2 were added. The detection plate was P30 filtermat, and the reaction was performed at room temperature for T minutes, and the reaction system was 10 μL.
(§2) The reaction was terminated by adding 0.5% phosphoric acid to the kinase reaction solution, and the plate was read by an Envision instrument.
(§3) The data were converted into phosphorylation rate and inhibition rate, and subjected to parameter curve-fitting (GraphPad Software) to obtain IC50 data of the compounds.

Abl(h) = Abl(h) (Homo sapiens, UniProt P00519); assay: In vitro kinase activity test, Abl(h)
Experimental: as §1, §2, §3

c-Met = c-Met (Homo sapiens, UniProt P08581); assay: In vitro kinase activity test, c-Met
Experimental: as §1, §2, §3

FGFR4(h) = FGFR4(h) (Homo sapiens, UniProt P22455); assay: In vitro kinase activity test, FGFR4(h)
Experimental: as §1, §2, §3

[1] = Pharmacokinetic evaluation in rats, intravenous and oral administration; type: in vivo, SD rats; conditions: for time to peak concentration / AUC(0-t) / bioavailability / Cmax: male SD rats, intragastric, 5 mg/kg, single; for AUC(0-t) / bioavailability / Cmax: rat, plasma, po; for Cmax: read-out: peak concentration (Cmax)
Experimental: Experimental objective: evaluation of the oral absorption in animals of the product of Embodiment 1 by intravenous and oral administration in rats
Experimental materials: male, SD rats, EDTA-K2
0.5 mg/mL of the test compound suspended in 0.5% Methocel/0.2% Tween 80 was administered intragastrically to male SD rats (overnight fasting, 7-11 week-age) at a dose of 5 mg/kg. About 30 μL blood was collected from the jugular or caudal vein of each animal in the two groups at 0.25, 0.5, 1.0, 2.0, 4.0, 8.0, and 24 hours after administration, added into anticoagulated tubes containing EDTA-K2, and the mixture was centrifuged to obtain the plasma. LC-MS/MS method was used to determine the drug concentration in blood, and WinNonlin™ Version 6.3 (Pharsight, Mountain View, Calif.) pharmacokinetic software was used to calculate the relevant pharmacokinetic parameters by non-compartment model logarithmic trapezoidal method.

[2] = as above; type: in vivo, SD rats; conditions: for Vd / AUC(0-t) / half-life / clearance: rat, plasma, male SD rats, intravenous injection, 1.0 mg/kg, single; for Vd: read-out: apparent volume of distribution at steady state (Vdss); for AUC(0-t): read-out: area under the plasma concentration-time curve (AUC0-last); for half-life: read-out: elimination half-life (T1/2) (converted); for clearance: read-out: plasma clearance (CL)
[3] = Pharmacokinetic evaluation in mice, intravenous and oral administration; type: in vivo; conditions: male Balb/c nude mice, single
Experimental: Experimental objective: evaluation of the oral absorption in animals of the product of Embodiment 1 by intravenous and oral administration in mice
Experimental materials: Balb/c nude mice, EDTA-K2
Experimental procedure: 0.5 mg/mL 5% DMSO/95% (10% HP-β-CD) clear solution of the product of Embodiment 1 was injected intravenously into male Balb/c nude mice (overnight fasting, 7-9 week-age) via caudal vein at a dose of 1 mg/kg. 0.5 mg/mL test compound suspended in 0.5% Methocel/0.2% Tween 80 was administered intragastrically to male Balb/c nude mice (overnight fasting, 7-9 week-age) at a dose of 5 mg/kg. About 30 μL blood was collected from the jugular or caudal vein of each animal in the two groups at 0.25, 0.5, 1.0, 2.0, 4.0, 8.0 and 24 hours after administration, added into anticoagulated tubes containing EDTA-K2, and the mixture was centrifuged to obtain the plasma. LC-MS/MS method was used to determine the drug concentration in blood, and WinNonlin™ Version 6.3 (Pharsight, Mountain View, Calif.) pharmacokinetic software was used to calculate the relevant pharmacokinetic parameters by non-compartment model logarithmic trapezoidal method.

PDGFRβ(h) = PDGFRβ(h) (Homo sapiens, UniProt P09619); assay: In vitro kinase activity test, PDGFRβ(h)
Experimental: as §1, §2, §3

Lck(h) = Lck(h) (Homo sapiens, UniProt P06239); assay: In vitro kinase activity test, Lck(h)
Experimental: as §1, §2, §3

Flt4(h) = Flt4(h) (Homo sapiens, UniProt P35916); assay: In vitro kinase activity test, Flt4(h)
Experimental: as §1, §2, §3

FGFR2(h) = FGFR2(h) (Homo sapiens, UniProt P21802); assay: In vitro kinase activity test, FGFR2(h)
Experimental: as §1, §2, §3

TNIK(h) = TNIK(h) (Homo sapiens, UniProt Q9UKE5); assay: In vitro kinase activity test, TNIK(h)
Experimental: as §1, §2, §3

MINK(h) = MINK(h) (Homo sapiens, UniProt Q8N4C8); assay: In vitro kinase activity test, MINK(h)
Experimental: as §1, §2, §3

KDR(h) = KDR(h) (Homo sapiens, UniProt P35968); assay: In vitro kinase activity test, KDR(h)
Experimental: as §1, §2, §3

Flt1(h) = Flt1(h) (Homo sapiens, UniProt P17948); assay: In vitro kinase activity test, Flt1(h)
Experimental: as §1, §2, §3

Aurora-A(h) = target: T1, Aurora-A(h) (Homo sapiens, UniProt O14965); assay: In vitro kinase activity test, Aurora-A(h)
T1 sequence (O14965 1-403): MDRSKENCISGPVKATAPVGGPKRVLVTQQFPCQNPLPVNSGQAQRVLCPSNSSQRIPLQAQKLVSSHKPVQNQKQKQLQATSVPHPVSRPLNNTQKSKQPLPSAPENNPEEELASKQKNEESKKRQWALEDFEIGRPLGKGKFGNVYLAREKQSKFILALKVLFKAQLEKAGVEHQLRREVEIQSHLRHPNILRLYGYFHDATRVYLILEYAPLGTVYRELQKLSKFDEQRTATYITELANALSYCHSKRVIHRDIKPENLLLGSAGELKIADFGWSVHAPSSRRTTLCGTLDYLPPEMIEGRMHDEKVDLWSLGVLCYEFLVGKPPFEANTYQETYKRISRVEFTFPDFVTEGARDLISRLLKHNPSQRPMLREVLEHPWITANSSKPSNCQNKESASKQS
Experimental: as §1, §2, §3

cKit(h) = cKit(h) (Homo sapiens, UniProt P10721); assay: In vitro kinase activity test, cKit(h)
Experimental: as §1, §2, §3

FGFR3(h) = FGFR3(h) (Homo sapiens, UniProt P22607); assay: In vitro kinase activity test, FGFR3(h)
Experimental: as §1, §2, §3

cKit(V560G)(h) = cKit(V560G)(h) (Homo sapiens, UniProt P10721, V560G); assay: In vitro kinase activity test, cKit(V560G)(h)
Experimental: as §1, §2, §3

PDGFRα(h) = PDGFRα(h) (Homo sapiens, UniProt P16234); assay: In vitro kinase activity test, PDGFRα(h)
Experimental: as §1, §2, §3

[4] = c-Met kinase activity IC50, Table 3, value 45.6 is from the second test (Note 1)
[5] = rats, intravenous administration

Chain of c-Met (P08581 25-1390): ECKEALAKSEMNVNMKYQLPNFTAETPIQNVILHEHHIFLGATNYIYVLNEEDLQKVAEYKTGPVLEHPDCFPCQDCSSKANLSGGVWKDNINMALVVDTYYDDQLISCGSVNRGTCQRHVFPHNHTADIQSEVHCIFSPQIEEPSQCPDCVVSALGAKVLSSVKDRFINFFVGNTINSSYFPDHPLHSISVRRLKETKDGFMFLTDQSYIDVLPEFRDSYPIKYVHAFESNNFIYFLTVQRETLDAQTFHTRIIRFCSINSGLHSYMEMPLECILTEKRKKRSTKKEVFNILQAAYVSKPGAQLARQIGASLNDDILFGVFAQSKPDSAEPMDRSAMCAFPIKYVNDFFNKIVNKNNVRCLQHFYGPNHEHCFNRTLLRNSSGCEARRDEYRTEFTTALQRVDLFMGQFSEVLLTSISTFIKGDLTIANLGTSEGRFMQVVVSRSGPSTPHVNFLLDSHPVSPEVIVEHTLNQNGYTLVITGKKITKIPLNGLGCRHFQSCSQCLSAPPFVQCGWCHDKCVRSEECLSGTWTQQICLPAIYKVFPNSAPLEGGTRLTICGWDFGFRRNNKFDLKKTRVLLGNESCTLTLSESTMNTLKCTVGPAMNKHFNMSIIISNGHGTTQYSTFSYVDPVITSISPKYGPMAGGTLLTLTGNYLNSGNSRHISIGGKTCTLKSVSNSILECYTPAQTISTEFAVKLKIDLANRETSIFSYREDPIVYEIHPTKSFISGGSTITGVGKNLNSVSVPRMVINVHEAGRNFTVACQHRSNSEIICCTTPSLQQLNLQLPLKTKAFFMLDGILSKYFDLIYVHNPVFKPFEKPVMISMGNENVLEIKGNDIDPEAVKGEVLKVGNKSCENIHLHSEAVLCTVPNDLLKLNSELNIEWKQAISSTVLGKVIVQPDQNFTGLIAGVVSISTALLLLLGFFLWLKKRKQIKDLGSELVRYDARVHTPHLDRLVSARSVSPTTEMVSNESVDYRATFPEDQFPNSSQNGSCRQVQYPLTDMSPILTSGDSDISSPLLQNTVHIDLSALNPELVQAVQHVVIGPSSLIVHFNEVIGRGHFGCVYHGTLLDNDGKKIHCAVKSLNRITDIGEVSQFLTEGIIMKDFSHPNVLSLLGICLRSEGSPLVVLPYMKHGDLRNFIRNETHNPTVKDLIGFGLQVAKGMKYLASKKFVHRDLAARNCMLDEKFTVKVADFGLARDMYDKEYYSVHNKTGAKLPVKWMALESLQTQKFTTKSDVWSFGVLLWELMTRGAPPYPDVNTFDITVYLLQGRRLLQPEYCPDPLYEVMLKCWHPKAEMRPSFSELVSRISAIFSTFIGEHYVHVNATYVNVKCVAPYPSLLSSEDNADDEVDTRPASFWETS
Chain of PDGFRβ(h) (P09619 33-1106): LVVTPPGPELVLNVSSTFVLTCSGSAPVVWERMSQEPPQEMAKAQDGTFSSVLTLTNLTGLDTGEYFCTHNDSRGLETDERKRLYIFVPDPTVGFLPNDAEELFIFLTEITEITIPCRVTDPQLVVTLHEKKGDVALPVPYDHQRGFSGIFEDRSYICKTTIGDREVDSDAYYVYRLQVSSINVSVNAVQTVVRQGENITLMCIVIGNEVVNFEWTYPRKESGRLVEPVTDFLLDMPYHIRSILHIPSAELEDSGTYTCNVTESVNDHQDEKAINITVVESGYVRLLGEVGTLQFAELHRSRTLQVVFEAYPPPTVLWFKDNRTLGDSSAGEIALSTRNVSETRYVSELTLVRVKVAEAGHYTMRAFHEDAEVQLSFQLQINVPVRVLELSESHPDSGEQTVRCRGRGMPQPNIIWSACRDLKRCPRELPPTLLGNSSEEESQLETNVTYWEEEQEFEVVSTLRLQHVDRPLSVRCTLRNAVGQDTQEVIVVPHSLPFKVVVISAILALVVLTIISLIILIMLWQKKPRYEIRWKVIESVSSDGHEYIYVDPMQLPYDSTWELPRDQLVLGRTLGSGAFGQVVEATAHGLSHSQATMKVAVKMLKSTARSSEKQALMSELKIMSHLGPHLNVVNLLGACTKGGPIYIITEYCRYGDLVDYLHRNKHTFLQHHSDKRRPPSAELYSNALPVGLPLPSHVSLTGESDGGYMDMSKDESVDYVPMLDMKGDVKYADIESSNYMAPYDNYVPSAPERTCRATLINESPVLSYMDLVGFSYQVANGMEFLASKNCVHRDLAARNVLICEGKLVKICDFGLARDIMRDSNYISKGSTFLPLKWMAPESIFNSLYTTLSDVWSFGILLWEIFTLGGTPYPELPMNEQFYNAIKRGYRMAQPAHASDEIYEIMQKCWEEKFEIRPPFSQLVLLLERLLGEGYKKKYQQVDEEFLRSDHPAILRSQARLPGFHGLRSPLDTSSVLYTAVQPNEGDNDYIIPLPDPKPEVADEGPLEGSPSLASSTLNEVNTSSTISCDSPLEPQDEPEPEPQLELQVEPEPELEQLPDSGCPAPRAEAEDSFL
Chain of FGFR4(h) (P22455 22-802): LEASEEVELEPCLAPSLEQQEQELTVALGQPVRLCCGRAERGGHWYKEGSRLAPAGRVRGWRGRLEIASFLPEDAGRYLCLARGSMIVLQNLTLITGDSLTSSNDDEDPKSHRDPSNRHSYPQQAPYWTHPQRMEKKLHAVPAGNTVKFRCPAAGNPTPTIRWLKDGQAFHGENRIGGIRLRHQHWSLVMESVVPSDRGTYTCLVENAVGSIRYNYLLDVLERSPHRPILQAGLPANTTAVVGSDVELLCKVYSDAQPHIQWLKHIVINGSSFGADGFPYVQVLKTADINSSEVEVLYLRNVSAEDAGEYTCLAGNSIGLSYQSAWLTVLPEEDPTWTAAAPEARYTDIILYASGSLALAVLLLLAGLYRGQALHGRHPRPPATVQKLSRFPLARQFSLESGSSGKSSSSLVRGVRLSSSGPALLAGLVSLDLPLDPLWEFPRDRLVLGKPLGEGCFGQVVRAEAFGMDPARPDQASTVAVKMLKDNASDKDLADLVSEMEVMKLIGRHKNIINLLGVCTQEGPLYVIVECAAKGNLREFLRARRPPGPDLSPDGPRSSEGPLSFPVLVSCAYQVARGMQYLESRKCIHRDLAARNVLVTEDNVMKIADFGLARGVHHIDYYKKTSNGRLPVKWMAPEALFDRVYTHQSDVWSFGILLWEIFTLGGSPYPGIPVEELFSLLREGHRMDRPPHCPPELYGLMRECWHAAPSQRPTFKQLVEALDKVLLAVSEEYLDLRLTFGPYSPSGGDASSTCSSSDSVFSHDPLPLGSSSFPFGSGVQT
Chain of FGFR3(h) (P22607 23-806): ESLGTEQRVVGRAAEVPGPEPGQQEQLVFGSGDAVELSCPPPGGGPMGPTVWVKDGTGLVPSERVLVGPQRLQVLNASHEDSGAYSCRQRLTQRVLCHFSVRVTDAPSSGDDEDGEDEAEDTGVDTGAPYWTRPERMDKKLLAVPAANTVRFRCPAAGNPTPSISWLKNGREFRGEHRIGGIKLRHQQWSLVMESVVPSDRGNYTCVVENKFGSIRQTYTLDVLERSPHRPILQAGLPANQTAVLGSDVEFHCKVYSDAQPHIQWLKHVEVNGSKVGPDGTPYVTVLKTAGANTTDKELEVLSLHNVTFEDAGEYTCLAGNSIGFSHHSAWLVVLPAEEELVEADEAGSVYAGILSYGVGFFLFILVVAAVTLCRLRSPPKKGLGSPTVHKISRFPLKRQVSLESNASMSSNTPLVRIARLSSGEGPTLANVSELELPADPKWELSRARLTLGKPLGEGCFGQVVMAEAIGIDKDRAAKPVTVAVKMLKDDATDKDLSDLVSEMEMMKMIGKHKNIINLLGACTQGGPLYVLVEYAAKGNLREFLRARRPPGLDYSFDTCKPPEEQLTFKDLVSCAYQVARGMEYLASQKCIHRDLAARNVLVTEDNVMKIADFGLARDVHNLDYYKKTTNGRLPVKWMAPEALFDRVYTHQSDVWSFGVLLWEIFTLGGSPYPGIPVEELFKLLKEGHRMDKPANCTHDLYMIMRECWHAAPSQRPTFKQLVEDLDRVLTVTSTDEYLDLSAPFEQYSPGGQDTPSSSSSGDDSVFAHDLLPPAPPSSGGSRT
Chain of FGFR1(h) (P11362 22-822): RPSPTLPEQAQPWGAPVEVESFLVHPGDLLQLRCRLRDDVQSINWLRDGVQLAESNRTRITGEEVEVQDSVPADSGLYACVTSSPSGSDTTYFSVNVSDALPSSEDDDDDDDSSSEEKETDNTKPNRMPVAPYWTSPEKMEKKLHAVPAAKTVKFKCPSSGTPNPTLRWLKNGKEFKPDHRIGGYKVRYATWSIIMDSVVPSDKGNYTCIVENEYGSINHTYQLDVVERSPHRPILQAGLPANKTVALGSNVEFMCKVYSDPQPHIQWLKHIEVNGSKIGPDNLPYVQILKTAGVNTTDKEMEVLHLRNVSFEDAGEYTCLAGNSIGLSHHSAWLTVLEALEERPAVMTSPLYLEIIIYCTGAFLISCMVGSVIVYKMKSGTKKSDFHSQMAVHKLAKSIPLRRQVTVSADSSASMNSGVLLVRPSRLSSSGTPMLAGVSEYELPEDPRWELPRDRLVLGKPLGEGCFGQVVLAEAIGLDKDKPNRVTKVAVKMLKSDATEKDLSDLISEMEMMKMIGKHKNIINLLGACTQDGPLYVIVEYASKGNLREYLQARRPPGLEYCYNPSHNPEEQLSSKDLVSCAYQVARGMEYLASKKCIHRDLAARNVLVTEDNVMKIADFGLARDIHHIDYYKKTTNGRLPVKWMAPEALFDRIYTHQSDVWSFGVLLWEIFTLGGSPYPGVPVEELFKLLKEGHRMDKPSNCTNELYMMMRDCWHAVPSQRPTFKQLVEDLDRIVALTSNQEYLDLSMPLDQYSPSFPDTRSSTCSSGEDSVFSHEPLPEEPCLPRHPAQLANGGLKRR

SMILES: COc1cc2nccc(Oc3ccc(NC(=O)NC4CC4)c(Cl)c3F)c2cc1C(N)=O [Embodiment 1]
- time to peak concentration [1]: 0.375 h
- AUC(0-t) [1]: 71.1 µM·h
- bioavailability [1]: 60.8%
- Cmax [1]: 19.6 µM
- AUC0-last increased, compared with Comparative Compound 1 ([1]; rats, oral absorption): 27%
- Vd [2]: 0.259 L/kg
- AUC(0-t) [2]: 23.4 µM·h
- half-life [2]: 2.64 h
- clearance [2]: 1.6 mL/min/kg
- AUC0-last increased, compared with Comparative Compound 1 [2, 5]: 55%
- plasma clearance reduced, compared with Comparative Compound 1 [2, 5]: ~38%
- time to peak concentration ([3]; intragastric, 5 mg/kg): 0.5 h
- bioavailability ([3]; mouse, plasma, po, intragastric, 5 mg/kg): 144%
- AUC(0-t) ([3]; mouse, plasma, po, intragastric, 5 mg/kg, read-out: AUC0-last): 24.9 µM·h
- Cmax ([3]; mouse, plasma, po, intragastric, 5 mg/kg, read-out: peak concentration (Cmax)): 9.83 µM
- Vd ([3]; mouse, plasma, intravenous injection, 1.0 mg/kg, read-out: apparent volume of distribution at steady state (Vdss)): 1.48 L/kg
- AUC(0-t) ([3]; mouse, plasma, intravenous injection, 1.0 mg/kg, read-out: area under the plasma concentration-time curve (AUC0-last)): 3.21 µM·h
- half-life ([3]; mouse, plasma, intravenous injection, 1.0 mg/kg, read-out: elimination half-life (T1/2) (converted)): 2.68 h
- clearance ([3]; mouse, plasma, intravenous injection, 1.0 mg/kg, read-out: plasma clearance (CL)): 11 mL/min/kg

SMILES: COc1cc2nccc(Oc3cc(F)c(NC(=O)NC4CC4)cc3F)c2cc1C(N)=O [Comparative Compound 3]
- IC50 (FGFR1(h)): 160 nM
- IC50 (Abl(h)): 817 nM
- IC50 (c-Met; [4]): > 10000 nM
- IC50 (FGFR4(h)): 509 nM

SMILES: COc1cc2nccc(Oc3ccc(NC(=S)NC4CC4)c(Cl)c3F)c2cc1C(N)=O [Comparative Compound 2]
- IC50 (FGFR1(h); read-out: FGFR1(h) IC50, Table 2, ATP 5 μM): 69 nM
- IC50 (PDGFRβ(h); read-out: PDGFRβ(h) IC50, Table 2, ATP 10 μM): 31 nM
- IC50 (Lck(h); read-out: Lck(h) IC50, Table 2, ATP 10 μM): 252 nM
- IC50 (Flt4(h)): 8 nM
- IC50 (FGFR2(h)): 15 nM
- IC50 (TNIK(h); read-out: TNIK(h) IC50, Table 2, ATP 10 μM): 118 nM
- IC50 (MINK(h); read-out: MINK(h) IC50, Table 2, ATP 10 μM): 55 nM
- IC50 (KDR(h); read-out: KDR(h) IC50, Table 2, ATP 10 μM): 7 nM
- IC50 (Flt1(h); read-out: Flt1(h) IC50, Table 2, ATP 10 μM): 31 nM
- IC50 (Aurora-A(h); read-out: Aurora-A(h) IC50, Table 2, ATP 10 μM): 262 nM

SMILES: COc1cc2nccc(Oc3ccc(NC(=O)NC4CC4)c(Cl)c3F)c2cc1C(N)=O [Embodiment 1B]
- IC50 (cKit(h)): 68 nM
- IC50 (FGFR1(h)): 9 nM
- activity on FGFR1 increased, compared with Comparative Compound 1 (FGFR1(h); from Table 2): 8 times
- IC50 (PDGFRβ(h)): 226 nM
- IC50 (Lck(h)): 43 nM
- IC50 (FGFR3(h)): 26 nM
- activity on FGFR3 increased, compared with Comparative Compound 1 (FGFR3(h); from Table 2): 5 times
- IC50 (Flt4(h)): 3 nM
- IC50 (FGFR2(h)): 6 nM
- activity on FGFR2 increased, compared with Comparative Compound 1 (FGFR2(h); from Table 2): 2 times
- IC50 (Abl(h)): 7 nM
- activity on ABL improved, compared with Comparative Compound 2 (Abl(h); from Table 2): ~70 times
- activity on ABL increased, compared with Comparative Compound 1 (Abl(h); from Table 2): 5 times
- IC50 (TNIK(h)): 14 nM
- activity on TNIK improved, compared with Comparative Compound 2 (TNIK(h); from Table 2): 8 times
- activity on TNIK increased, compared with Comparative Compound 1 (TNIK(h); from Table 2): 6.5 times
- IC50 (MINK(h)): 48 nM
- IC50 (cKit(V560G)(h)): 262 nM
- IC50 (PDGFRα(h)): 120 nM
- IC50 (KDR(h)): 9 nM
- IC50 (c-Met; c-Met IC50, Table 2, ATP 10 μM): 99.8 nM
- IC50 (c-Met; [4]): 45.6 nM
- activity on c-Met increased, compared with Comparative Compound 1 (c-Met; from Table 2): 5 times
- IC50 (Flt1(h)): 10 nM
- IC50 (FGFR4(h)): 92 nM
- activity on FGFR4 increased, compared with Comparative Compound 1 (FGFR4(h); from Table 2): 12 times
- IC50 (Aurora-A(h)): 2080 nM

SMILES: COc1cc2nccc(Oc3ccc(NC(=O)NC4CC4)c(Cl)c3)c2cc1C(N)=O [Comparative Compound 1, Lovatinib]
- IC50 (cKit(h)): 78 nM
- IC50 (FGFR1(h)): 76.6 nM
- IC50 (PDGFRβ(h)): 275 nM
- IC50 (Lck(h)): 69 nM
- time to peak concentration [1]: 1.25 h
- AUC(0-t) [1]: 44.5 µM·h
- bioavailability [1]: 58.7%
- Cmax [1]: 10.1 µM
- Vd [2]: 0.407 L/kg
- AUC(0-t) [2]: 15.1 µM·h
- half-life [2]: 2.53 h
- clearance [2]: 2.6 mL/min/kg
- IC50 (FGFR3(h)): 132 nM
- IC50 (Flt4(h)): 3 nM
- IC50 (FGFR2(h)): 14 nM
- IC50 (TNIK(h)): 91 nM
- IC50 (MINK(h)): 359 nM
- IC50 (cKit(V560G)(h)): 596 nM
- IC50 (c-Met; c-Met IC50, Table 2, ATP 10 μM): 598 nM
- IC50 (Flt1(h)): 13 nM
- IC50 (FGFR4(h)): 1120 nM

SMILES: COc1cc2nccc(Oc3cc(Cl)c(NC(=O)NC4CC4)cc3F)c2cc1C(N)=O [Comparative Compound 5]
- IC50 (FGFR1(h)): 89 nM
- IC50 (Abl(h)): 207 nM
- IC50 (c-Met; [4]): 32 nM
- IC50 (FGFR4(h)): 137 nM

The next lines start with the values.

- IC50 (FGFR1(h)): 31 nM
- IC50 (Abl(h)): 292 nM
- IC50 (c-Met; [4]): 79.8 nM
- IC50 (FGFR4(h)): 108 nM
SMILES: COc1cc2nccc(Oc3ccc(NC(=O)NC4CC4)c(F)c3F)c2cc1C(N)=O [Comparative Compound 4]

- IC50 (FGFR1(h)): 54 nM
- IC50 (c-Met; [4]): > 10000 nM
- IC50 (FGFR4(h)): 1110 nM
SMILES: COc1cc2nccc(Oc3cc(F)c(NC(=O)NC4CC4)c(Cl)c3)c2cc1C(N)=O [Comparative Compound 7]

- IC50 (FGFR1(h)): 1740 nM
- IC50 (Abl(h)): 2210 nM
- IC50 (c-Met; [4]): 282 nM
- IC50 (FGFR4(h)): 4560 nM
SMILES: COc1cc2nccc(Oc3ccc(NC(=O)NC4CC4)c(F)c3)c2cc1C(N)=O [Comparative Compound 6]
